Reference: patent US20200405868A1, “GEL-FORMING POLYPEPTIDES” (priority 2018, published 2020)
Entries after “also recorded” stand apart in the source; their conditions may differ. *1 amine or outer side, *2 acyl side, *3 side chain or, on linkers, in order; H or OH if unused. Where a SMILES comes first, the peptide text is derived from it. Where no end group is shown, it is not given here. [ ]: non-standard residue; d: D form. The star is where a group is joined. FITC = O=C1OC2(c3ccc(O)cc3Oc3cc(O)ccc32)c2ccc(NC(=S)*)cc21; K(Pal) = CCCCCCCCCCCCCCCC(=O)NCCCC[C@H](N[*:1])C(=O)[*:2]; d2Nal = N[C@H](Cc1ccc2ccccc2c1)C(=O)O

Test: Compound gel-forming ability in water (visual inspection, tube tapping assay, tilted tube assay);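 note: peptides mixed with de-ionized water at about 22-25 °C, judged after 20 min by eye plus tube tapping (10 taps, moves counted) and 90° tilt mobility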
Assay type: physicochemical
Conditions: for gel formation at 6% w/w: 6% w/w in water; for gel formation at 11% w/w: 11% w/w in water; for Physical property at 11% w/w: 11% w/w in aqueous solution, room temperature; for gel formation in aqueous solution, 11% / gel formation in aqueous solution, 20% / gel formation in aqueous solution, 6%: Table 3; for gel formation in aqueous solution, 11% / propensity to form gels, wild-type counterparts, 11%: 11% w/w; for gel formation in aqueous solution, 20% / propensity to form gels, wild-type counterparts, 20%: 20% w/w; for propensity to form gels, wild-type counterparts, 6% / gel formation in aqueous solution, 6%: 6% w/w; for gel formation at the selected concentration: selected concentration (i.e., at 30%, 20%, 11%, or 6% w/w); for gel formation at 20% w/w: 20% w/w in water

Molecule | gel formation at 11% w/w | Physical property at 11% w/w (Table 1) | gel formation in aqueous solution, 11% | propensity to form gels, wild-type counterparts, 6% (Table 5) | propensity to form gels, wild-type counterparts, 11% (Table 5) | also measured
CC[C@H](C)[C@H](NC(=O)[C@@H]1CCCN1C(=O)CNC(=O)[C@H](Cc1ccccc1)NC(=O)[C@H](CC(N)=O)NC(=O)[C@H](CC(N)=O)NC(=O)[C@H](CO)NC(=O)[C@H](CO)NC(=O)[C@H](Cc1c[nH]cn1)NC(=O)[C@@H](NC(=O)[C@H](CC(C)C)NC(=O)[C@H](Cc1ccccc1)NC(=O)[C@H](CC(N)=O)NC(=O)[C@H](C)NC(=O)[C@H](CC(C)C)NC(=O)[C@H](CCCNC(=N)N)NC(=O)[C@H](CCC(N)=O)NC(=O)[C@@H](NC(=O)[C@H](C)NC(=O)[C@@H]1CSSC[C@H](NC(=O)[C@@H](N)CCCCN)C(=O)N[C@@H](CC(N)=O)C(=O)N[C@@H]([C@@H](C)O)C(=O)N[C@@H](C)C(=O)N[C@@H]([C@@H](C)O)C(=O)N1)[C@@H](C)O)C(C)C)C(=O)N[C@@H](CC(C)C)C(=O)N1CCC[C@H]1C(=O)N1CCC[C@H]1C(=O)N[C@H](C(=O)N[C@@H](CC(N)=O)C(=O)N[C@H](C(=O)NCC(=O)N[C@@H](CO)C(=O)N[C@@H](CC(N)=O)C(=O)N[C@H](C(=O)N[C@@H](Cc1ccc(O)cc1)C(N)=O)[C@@H](C)O)C(C)C)[C@@H](C)O [SEQ ID NO:4, reference compound] | semisolid gel | SS (SS for semisolid gel) | AS/IS (AS/IS for aqueous solution or insoluble) | AS/IS | SS (An ability to form semisolid gel is represented by an SS) | gel formation at 6% w/w: does not form gel; gel formation in aqueous solution, 20%: SS (SS for semisolid gel)
CC[C@H](C)[C@@H]1NC(=O)[C@H](Cc2ccc(O)cc2)NC(=O)[C@@H](N)CSSC[C@@H](C(=O)N2CCC[C@H]2C(=O)N[C@@H](CC(C)C)C(=O)NCC(N)=O)NC(=O)[C@H](CC(N)=O)NC(=O)[C@H](CCC(N)=O)NC1=O [SEQ ID NO:5, reference compound] | semisolid gel | SS (SS for semisolid gel) | SS (SS for semisolid gel) | AS/IS | SS (An ability to form semisolid gel is represented by an SS) | gel formation at 6% w/w: does not form liquid or semisolid gel; gel formation in aqueous solution, 6%: AS/IS (AS/IS for aqueous solution or insoluble); gel formation at the selected concentration: only form aqueous solution or are insoluble
C[C@H](NC(=O)[C@@H](Cc1ccc2ccccc2c1)NC(=O)[C@@H](C)N)C(=O)N[C@@H](Cc1c[nH]c2ccccc12)C(=O)N[C@H](Cc1ccccc1)C(=O)N[C@@H](CCCCN)C(N)=O [SEQ ID NO:8, (D-Ala)-(D-(β-naphthyl))-AAW-(D-Phe)-Lys-NH2, reference compound] (H-[dA][d2Nal]AW[dF]K-NH2) | form self-assembling gels; also recorded: semisolid gel | SS (SS for semisolid gel) | SS (SS for semisolid gel) | SS (An ability to form semisolid gel is represented by an SS) | SS (An ability to form semisolid gel is represented by an SS) | gel formation at 3% w/w (3% w/w in water): liquid gel; gel formation at 6% w/w: semisolid gel; gel formation in aqueous solution, 6%: SS (SS for semisolid gel)
CC[C@H](C)[C@H](N)C(=O)N[C@H]1CSSC[C@@H](C(=O)N[C@H](C(N)=O)[C@@H](C)O)NC(=O)[C@H](CCCN=C(N)N)NC(=O)[C@H](Cc2cnc[nH]2)NC(=O)[C@H](Cc2cnc[nH]2)NC(=O)CNC(=O)[C@H](Cc2c[nH]c3ccccc23)NC(=O)[C@H](CC(=O)O)NC(=O)[C@H](CCC(N)=O)NC(=O)[C@H](C(C)C)NC(=O)[C@H](C(C)C)NC1=O [SEQ ID NO:11, reference compound] | form self-assembling gels; also recorded: semisolid gel | SS (SS for semisolid gel) | SS (SS for semisolid gel) |  | SS (An ability to form semisolid gel is represented by an SS) | 
NC(=O)CC[C@@H]1NC(=O)[C@H](Cc2ccccc2)NC(=O)[C@H](Cc2ccc(O)cc2)NC(=O)[C@@H](N)CSSC[C@@H](C(=O)N2CCC[C@H]2C(=O)N[C@@H](CCCN=C(N)N)C(=O)NCC(N)=O)NC(=O)[C@H](CC(N)=O)NC1=O [SEQ ID NO:17, reference compound] | does not form gel | AS/IS | AS/IS (AS/IS for aqueous solution or insoluble) |  | AS/IS | 
(D-Nal)-(D-Cpa)-(D-Pal)-SY-(D-Cit)-LRP-(D-Ala)-NH2 [SEQ ID NO:27, reference compound] |  | AS/IS | AS/IS (AS/IS for aqueous solution or insoluble) |  | AS/IS | 
(D-Phe)-QWAVGHL-(4-CI)Phe-NH2 [SEQ ID NO:61, reference compound] | form self-assembling gels | SS (SS for semisolid gel) | SS (SS for semisolid gel) | SS (An ability to form semisolid gel is represented by an SS) | SS (An ability to form semisolid gel is represented by an SS) | gel formation in aqueous solution, 6%: SS (SS for semisolid gel)
(D-Tyr)QWAV(β-Ala)HF(Nle)-NH2 [SEQ ID NO:20, reference compound] | does not form gel | AS/IS | AS/IS (AS/IS for aqueous solution or insoluble) | AS/IS | AS/IS | gel formation at 6% w/w: does not form gel; gel formation in aqueous solution, 6%: AS/IS (AS/IS for aqueous solution or insoluble)
(G1p)HWSY-(D-2Nal)-LRPG-NH2 [SEQ ID NO:15, reference compound] | liquid gel |  |  | AS/IS |  | gel formation in aqueous solution, 6%: AS/IS (AS/IS for aqueous solution or insoluble)
(G1p)RPRLSHKGP(Nle)PF-K(Pal)HSY-NH2 [SEQ ID NO:262] | liquid gel |  |  |  |  | gel formation at 20% w/w: liquid gel; propensity to form gels, chimeric or mutated polypeptides, 3% (Table 5, 3% w/w): AS/IS
(G1p)RPRLSHKGP(Nle)PF-miniPEG-K(Pal)VQKLSAPVDPSSPHSY-NH2 [SEQ ID NO:206] | liquid gel |  |  |  |  | gel formation at 20% w/w: liquid gel
(Glp)RPRLSHKGP(Nle)PF-NH2 (pyroGlu; Nle; C-terminal amide) [SEQ ID NO:18, reference compound] | does not form gel | AS/IS | AS/IS (AS/IS for aqueous solution or insoluble) | AS/IS | AS/IS | gel formation at 6% w/w: does not form gel; gel formation at 20% w/w: does not form gel; gel formation in aqueous solution, 6%: AS/IS (AS/IS for aqueous solution or insoluble); gel formation in aqueous solution, 20%: AS/IS (AS/IS for aqueous solution or insoluble); propensity to form gels, wild-type counterparts, 20% (Table 5): AS/IS; gel formation at the selected concentration: only form aqueous solution or are insoluble
(Lauric acid)-SSPHSY-NH2 [SEQ ID NO:122] |  |  |  |  |  | Physical property at 11% w/w (Table 2): SS (SS for semisolid gel)
(Myristic acid)-SSPHSY-NH2 [SEQ ID NO:123] |  |  |  |  |  | Physical property at 11% w/w (Table 2): SS (SS for semisolid gel)
Ac-EEMQRR-NH2 [SEQ ID NO:47, reference compound] |  | AS/IS | AS/IS (AS/IS for aqueous solution or insoluble) |  | AS/IS | 
Ace-FKFEFKFE-NH2 [SEQ ID NO:141, reference compound] |  |  |  |  |  | Physical property at 11% w/w (Table 2): SS (SS for semisolid gel)
Ace-K(PAL)FGCRFGTCTVQKLAHQIYQFTDKDKDNVAPRSKISPQGY-NH2 [SEQ ID NO:1] | liquid gel |  |  | AS/IS |  | gel formation in aqueous solution, 6%: AS/IS (AS/IS for aqueous solution or insoluble); propensity to form gels, wild-type counterparts, 3% (Table 5, 3% w/w): AS/IS
Ace-KVQKLSAPVDPSSPHSY-NH2 [SEQ ID NO:115] |  |  |  |  |  | Physical property at 11% w/w (Table 2): AS/IS (AS/IS for aqueous solution or insoluble)
Ace-NFVPTNVGPFAF-NH2 (Ac-NFVPTNVGPFAF-NH2) [SEQ ID NO:134] |  |  |  |  |  | Physical property at 11% w/w (Table 2): AS/IS (AS/IS for aqueous solution or insoluble)
Ace-RADARADARADARADA-NH2 [SEQ ID NO:142, reference compound] |  |  |  |  |  | Physical property at 11% w/w (Table 2): SS (SS for semisolid gel)
Ace-TVQKLAHQIYQFTDKDKDNVAPRSKISPQGY-NH2 [SEQ ID NO:101] |  |  |  |  |  | Physical property at 11% w/w (Table 2): AS/IS (AS/IS for aqueous solution or insoluble)
CSNLSTCVLGKLSQELHKLQTYPRTNTGSGTP-NH2 [SEQ ID NO:28, reference compound] | does not form gel | AS/IS |  |  | AS/IS | gel formation in aqueous solution, 20%: AS/IS (AS/IS for aqueous solution or insoluble)
DRVYIHPF-NH2 [SEQ ID NO:16, reference compound] |  | AS/IS |  |  |  | 
EAYKAAEKAYAAKEAAKEAAKAKAEKKAAYAKAKAAKYEKKAKKAAAEYKKK [SEQ ID NO:42, reference compound] | does not form gel | AS/IS | AS/IS (AS/IS for aqueous solution or insoluble) |  | AS/IS | gel formation at 20% w/w: does not form gel; gel formation in aqueous solution, 20%: AS/IS (AS/IS for aqueous solution or insoluble); propensity to form gels, wild-type counterparts, 20% (Table 5): AS/IS
FITC-K(Pal)SSPHSY-miniPEG-GRKKRRQRRRPQ ({FITC-K(Pal)-Ser-Ser-Pro-H2N-Ser-Tyr-miniPEG}-GRKKRRQRRRPQ) [SEQ ID NO:241] | liquid gel |  |  |  |  | 
